Source: patent publication US10351573B2, “Benzoic acid, benzoic acid derivatives and heteroaryl carboxylic acid conjugates of hydrocodone, prodrugs, methods of making and uses thereof” (KemPharm, Inc., priority 2009, dated 2019)
Structures can show the parent of a compound that is named as a salt. Where two headings read alike, the source gives them in different places.

What was measured:
[1] = Example 23: Bz-HC.HCl API single dose intranasal human PK study vs HB API; assay type: in vivo, humans; conditions: 13.34 mg Bz-HC•HCl API; for AUC(0-t) / AUC(0-inf) / half-life / Cmax: 13.34 mg
Text: This was a randomized, double blind, single dose, two way crossover, single center study in recreational non-dependent opioid users. Subjects participated in a Screening Phase (Visit 1), Naloxone Challenge Test (Visit 2, Check in), Treatment Phase (Visit 2, inpatient) and Follow up Phase (Visit 3).
A sufficient number of male and female subjects between the ages of 18-55 years were to be screened in order to enroll approximately 30 subjects into the Treatment Phase to ensure 24 completers.

[2] = humans, fasted, oral, equimolar doses
[3] = Example 22: intranasal crushed / oral intact tablets human PK study vs HB/APAP
[4] = Water solubility / feasibility of intranasal or intravenous dosing; conditions: water

COc1ccc2c3c1O[C@H]1C(OC(=O)c4ccccc4)=CC[C@H]4[C@@H](C2)N(C)CC[C@]314 [Bz-HC•HCl, benzoate-hydrocodone hydrochloride]
Bz-HC plasma concentrations at 24 hours post-dose (in words) ([1]; all subjects): below the limit of quantification | Tmax ([1]; both sexes, human, plasma, inhaled or intranasal, read-out: Tmax of Bz-HC, Median (Min-Max)): 0.25 h | AUC(0-t) ([1]; both sexes, human, plasma, inhaled or intranasal, n = 22, read-out: AUC0-4 h of Bz-HC, Mean (SD)): 3.14 ng·h/mL | AUC(0-t) ([1]; both sexes, human, plasma, inhaled or intranasal, n = 22, read-out: AUC0-4 h of Bz-HC, Median (Min-Max)): 2.36 ng·h/mL | AUC(0-t) ([1]; both sexes, human, plasma, inhaled or intranasal, n = 22, read-out: AUC0-6 h of Bz-HC, Mean (SD)): 3.4 ng·h/mL | AUC(0-t) ([1]; both sexes, human, plasma, inhaled or intranasal, n = 22, read-out: AUC0-6 h of Bz-HC, Median (Min-Max)): 2.56 ng·h/mL | AUC(0-t) ([1]; both sexes, human, plasma, inhaled or intranasal, n = 22, read-out: AUC0-8 h of Bz-HC, Mean (SD)): 3.51 ng·h/mL | AUC(0-t) ([1]; both sexes, human, plasma, inhaled or intranasal, n = 22, read-out: AUC0-8 h of Bz-HC, Median (Min-Max)): 2.62 ng·h/mL | AUC(0-t) ([1]; both sexes, human, plasma, inhaled or intranasal, n = 22, read-out: AUC0-10 h of Bz-HC, Mean (SD)): 3.56 ng·h/mL | AUC(0-t) ([1]; both sexes, human, plasma, inhaled or intranasal, n = 22, read-out: AUC0-10 h of Bz-HC, Median (Min-Max)): 2.64 ng·h/mL | AUC(0-t) ([1]; both sexes, human, plasma, inhaled or intranasal, n = 22, read-out: AUC0-12 h of Bz-HC, Mean (SD)): 3.59 ng·h/mL | AUC(0-t) ([1]; both sexes, human, plasma, inhaled or intranasal, n = 22, read-out: AUC0-12 h of Bz-HC, Median (Min-Max)): 2.64 ng·h/mL | AUC(0-t) ([1]; both sexes, human, plasma, inhaled or intranasal, n = 22, read-out: AUC0-24 h of Bz-HC, Mean (SD)): 3.61 ng·h/mL | AUC(0-t) ([1]; both sexes, human, plasma, inhaled or intranasal, n = 22, read-out: AUC0-24 h of Bz-HC, Median (Min-Max)): 2.65 ng·h/mL | AUC(0-inf) ([1]; both sexes, human, plasma, inhaled or intranasal, n = 22, read-out: AUCinf of Bz-HC, Mean (SD)): 3.62 ng·h/mL | AUC(0-inf) ([1]; both sexes, human, plasma, inhaled or intranasal, n = 22, read-out: AUCinf of Bz-HC, Median (Min-Max)): 2.65 ng·h/mL | half-life ([1]; both sexes, human, plasma, inhaled or intranasal, n = 22, read-out: t1/2 of Bz-HC, Mean (SD) (converted)): 1.42 h | half-life ([1]; both sexes, human, plasma, inhaled or intranasal, n = 22, read-out: t1/2 of Bz-HC, Median (Min-Max) (converted)): 1.3 h | AUC(0-t) ([1]; both sexes, human, plasma, inhaled or intranasal, n = 23, read-out: AUC0-1.5 h of Bz-HC, Mean (SD)): 2.06 ng·h/mL | AUC(0-t) ([1]; both sexes, human, plasma, inhaled or intranasal, n = 23, read-out: AUC0-1.5 h of Bz-HC, Median (Min-Max)): 1.68 ng·h/mL | AUC(0-t) ([1]; both sexes, human, plasma, inhaled or intranasal, n = 23, read-out: AUC0-2 h of Bz-HC, Mean (SD)): 2.39 ng·h/mL | AUC(0-t) ([1]; both sexes, human, plasma, inhaled or intranasal, n = 23, read-out: AUC0-2 h of Bz-HC, Median (Min-Max)): 1.93 ng·h/mL | AUC(0-t) ([1]; both sexes, human, plasma, inhaled or intranasal, n = 23, read-out: AUC0-3 h of Bz-HC, Mean (SD)): 2.79 ng·h/mL | AUC(0-t) ([1]; both sexes, human, plasma, inhaled or intranasal, n = 23, read-out: AUC0-3 h of Bz-HC, Median (Min-Max)): 2.19 ng·h/mL | AUC(0-t) ([1]; both sexes, human, plasma, inhaled or intranasal, read-out: AUC0-0.0833 h of Bz-HC, Mean (SD)): 0.0153 ng·h/mL | AUC(0-t) ([1]; both sexes, human, plasma, inhaled or intranasal, read-out: AUC0-0.5 h of Bz-HC, Mean (SD)): 0.7 ng·h/mL | AUC(0-t) ([1]; both sexes, human, plasma, inhaled or intranasal, read-out: AUC0-0.5 h of Bz-HC, Median (Min-Max)): 0.666 ng·h/mL | AUC(0-t) ([1]; both sexes, human, plasma, inhaled or intranasal, read-out: AUC0-0.75 h of Bz-HC, Mean (SD)): 1.15 ng·h/mL | AUC(0-t) ([1]; both sexes, human, plasma, inhaled or intranasal, read-out: AUC0-0.75 h of Bz-HC, Median (Min-Max)): 0.977 ng·h/mL | AUC(0-t) ([1]; both sexes, human, plasma, inhaled or intranasal, read-out: AUC0-1 h of Bz-HC, Mean (SD)): 1.5 ng·h/mL | AUC(0-t) ([1]; both sexes, human, plasma, inhaled or intranasal, read-out: AUC0-1 h of Bz-HC, Median (Min-Max)): 1.24 ng·h/mL | AUC(0-t) ([1]; both sexes, human, plasma, inhaled or intranasal, read-out: AUClast of Bz-HC, Mean (SD)): 3.24 ng·h/mL | AUC(0-t) ([1]; both sexes, human, plasma, inhaled or intranasal, read-out: AUClast of Bz-HC, Median (Min-Max)): 2.41 ng·h/mL | Cmax ([1]; both sexes, human, plasma, inhaled or intranasal, read-out: Cmax of Bz-HC, Mean (SD)): 2.41 ng/mL | Cmax ([1]; both sexes, human, plasma, inhaled or intranasal, read-out: Cmax of Bz-HC, Median (Min-Max)): 2.16 ng/mL | concentration at […] ([1]; both sexes, human, plasma, other: intranasal, at 0.25 hour post-dose, read-out: highest mean (SD) plasma concentration of Bz-HC): 2.01 ng/mL | AUC(0-t) ([1]; both, human, plasma, inhaled or intranasal, AUC0-[…] of Bz-HC, Mean (SD), read-out: AUC0-0.25 h of Bz-HC, Mean (SD)): 0.213 ng·h/mL | AUC(0-t) ([1]; both, human, plasma, inhaled or intranasal, AUC0-[…] of Bz-HC, Median (Min-Max), read-out: AUC0-0.25 h of Bz-HC, Median (Min-Max)): 0.197 ng·h/mL | bioequivalence to Norco (in words) [2]: bioequivalent | half-life ([3]; human, plasma, inhaled or intranasal): 1.11 h | Tlast of Bz-HC (time of the last quantifiable concentration), median ([3]; intranasal crushed Bz-HC.HCl/APAP 13.34/650 mg): 6.22 h | water solubility (in words) [4]: much less soluble in water than the hydrocodone bitartrate
